Reference: publication PMC11124822, “Discovery and Anticancer Screening of Novel Oxindole-Based Derivative Bearing Pyridyl Group as Potent and Selective Dual FLT3/CDK2 Kinase Inhibitor” (Pharmaceuticals, 2024)

Assays:
SW-620 = assay: NCI-60 antiproliferative screen (SRB); assay type: cell-based, human; details: Homo sapiens; 10 µM single dose, 48 h; SW-620 (Colon); read-out: Growth inhibition (%)
SK-MEL-5 = assay: NCI-60 antiproliferative screen (SRB); assay type: cell-based, human; details: Homo sapiens; 10 µM single dose, 48 h; SK-MEL-5 (Melanoma); read-out: Growth inhibition (%)
HCC-2998 = assay: NCI-60 antiproliferative screen (SRB); assay type: cell-based, human; details: Homo sapiens; 10 µM single dose, 48 h; HCC-2998 (Colon); read-out: Growth inhibition (%)
SK-MEL-2 = assay: NCI-60 antiproliferative screen (SRB); assay type: cell-based, human; details: Homo sapiens; 10 µM single dose, 48 h; SK-MEL-2 (Melanoma); read-out: Growth inhibition (%)
RPMI-8226 = assay: NCI-60 antiproliferative screen (SRB); assay type: cell-based, human; details: Homo sapiens; 10 µM single dose, 48 h; RPMI-8226 (Leukemia); read-out: Growth inhibition (%)
NCI-H322M = assay: NCI-60 antiproliferative screen (SRB); assay type: cell-based, human; details: Homo sapiens; 10 µM single dose, 48 h; NCI-H322M (NSCLC); read-out: Growth inhibition (%)
U251 = assay: NCI-60 antiproliferative screen (SRB); assay type: cell-based, human; details: Homo sapiens, U-251; 10 µM single dose, 48 h; U251 (CNS); read-out: Growth inhibition (%)
HOP-92 = assay: NCI-60 antiproliferative screen (SRB); assay type: cell-based, human; details: Homo sapiens; 10 µM single dose, 48 h; HOP-92 (NSCLC); read-out: Growth inhibition (%)
COLO 205 = assay: NCI-60 antiproliferative screen (SRB); assay type: cell-based, human; details: Homo sapiens; 10 µM single dose, 48 h; COLO 205 (Colon); read-out: Growth inhibition (%)
SR = assay: NCI-60 antiproliferative screen (SRB); details: Homo sapiens, 48 h, read-out: Growth inhibition (%)
Protocol: (§1) Anticancer activity was tested against 60 cancer cell lines (NCI-60) after 48h treatments with a single dosage of 10 μM of compounds by using sulforhodamine B assay [39] on the traditional 96-well platform. […] The human cancer cell lines of the NCI-60 panel are grown in RPMI 1640 medium supplemented with 5% FBS (fetal bovine serum) and 2 mM L-glutamine. […] For further analysis of promising compounds, five dose screens were performed against the NCI-60 panel. Drug treatments are performed in 5 doses using 10-fold or ½ log dose dilutions.

SNB-19 = assay: NCI-60 antiproliferative screen (SRB); assay type: cell-based, human; details: Homo sapiens; 10 µM single dose, 48 h; SNB-19 (CNS); read-out: Growth inhibition (%)
PC-3 = assay: NCI-60 antiproliferative screen (SRB); assay type: cell-based, human; details: Homo sapiens; 10 µM single dose, 48 h; PC-3 (Prostate); read-out: Growth inhibition (%)
SNB-75 = assay: NCI-60 antiproliferative screen (SRB); details: Homo sapiens, SNB-75, 48 h, read-out: Growth inhibition (%)
Protocol: as §1

OVCAR-3 = assay: NCI-60 antiproliferative screen (SRB); assay type: cell-based, human; details: Homo sapiens; 10 µM single dose, 48 h; OVCAR-3 (Ovarian); read-out: Growth inhibition (%)
A498 = assay: NCI-60 antiproliferative screen (SRB); assay type: cell-based, human; details: Homo sapiens; 10 µM single dose, 48 h; A498 (Renal); read-out: Growth inhibition (%)
MDA-MB-468 = assay: NCI-60 antiproliferative screen (SRB); assay type: cell-based, human; details: Homo sapiens; 10 µM single dose, 48 h; MDA-MB-468 (Breast); read-out: Growth inhibition (%)
MDA-MB-231 = assay: NCI-60 antiproliferative screen (SRB); assay type: cell-based, human; details: Homo sapiens; 10 µM single dose, 48 h; MDA-MB-231 (Breast); read-out: Growth inhibition (%)
TK-10 = assay: NCI-60 antiproliferative screen (SRB); assay type: cell-based, human; details: Homo sapiens; 10 µM single dose, 48 h; TK-10 (Renal); read-out: Growth inhibition (%)
T-47D = assay: NCI-60 antiproliferative screen (SRB); assay type: cell-based, human; details: Homo sapiens, T47D; 10 µM single dose, 48 h; T-47D (Breast); read-out: Growth inhibition (%)
HT29 = assay: NCI-60 antiproliferative screen (SRB); assay type: cell-based, human; details: Homo sapiens, HT-29; 10 µM single dose, 48 h; HT29 (Colon); read-out: Growth inhibition (%)
HL-60(TB) = assay: NCI-60 antiproliferative screen (SRB); assay type: cell-based, human; details: Homo sapiens; 10 µM single dose, 48 h; HL-60(TB) (Leukemia); read-out: Growth inhibition (%)
UO-31 = assay: NCI-60 antiproliferative screen (SRB); assay type: cell-based, human; details: Homo sapiens; 10 µM single dose, 48 h; UO-31 (Renal); read-out: Growth inhibition (%)
K-562 = assay: NCI-60 antiproliferative screen (SRB); assay type: cell-based, human; details: Homo sapiens, K562; 10 µM single dose, 48 h; K-562 (Leukemia); read-out: Growth inhibition (%)
KM12 = assay: NCI-60 antiproliferative screen (SRB); assay type: cell-based, human; details: Homo sapiens; 10 µM single dose, 48 h; KM12 (Colon); read-out: Growth inhibition (%)
HOP-62 = assay: NCI-60 antiproliferative screen (SRB); assay type: cell-based, human; details: Homo sapiens; 10 µM single dose, 48 h; HOP-62 (NSCLC); read-out: Growth inhibition (%)
RXF 393 = assay: NCI-60 antiproliferative screen (SRB); assay type: cell-based, human; details: Homo sapiens; 10 µM single dose, 48 h; RXF 393 (Renal); read-out: Growth inhibition (%)
MCF7 = assay: NCI-60 antiproliferative screen (SRB); assay type: cell-based, human; details: Homo sapiens; 10 µM single dose, 48 h; MCF7 (Breast); read-out: Growth inhibition (%)
MOLT-4 = assay: NCI-60 antiproliferative screen (SRB); assay type: cell-based; details: Homo sapiens; 10 µM single dose, 48 h; MOLT-4 (Leukemia); read-out: Growth inhibition (%)
A549/ATCC = assay: NCI-60 antiproliferative screen (SRB); assay type: cell-based, human; details: Homo sapiens; 10 µM single dose, 48 h; A549/ATCC (NSCLC); read-out: Growth inhibition (%)
MALME-3M = assay: NCI-60 antiproliferative screen (SRB); assay type: cell-based, human; details: Homo sapiens; 10 µM single dose, 48 h; MALME-3M (Melanoma); read-out: Growth inhibition (%)

SMILES	inhibition at 10 µM (SW-620) [%]	inhibition at 10 µM (SK-MEL-5) [%]	inhibition at 10 µM (HCC-2998) [%]	inhibition at 10 µM (SK-MEL-2) [%]	inhibition at 10 µM (RPMI-8226) [%]	inhibition at 10 µM (NCI-H322M) [%]	inhibition at 10 µM (U251) [%]	inhibition at 10 µM (HOP-92) [%]	inhibition at 10 µM (COLO 205) [%]	inhibition at 10 µM (SR) [%]	inhibition at 10 µM (SNB-19) [%]	inhibition at 10 µM (PC-3) [%]	inhibition at 10 µM (SNB-75) [%]	inhibition at 10 µM (OVCAR-3) [%]	inhibition at 10 µM (A498) [%]	inhibition at 10 µM (MDA-MB-468) [%]	inhibition at 10 µM (MDA-MB-231) [%]	inhibition at 10 µM (TK-10) [%]	inhibition at 10 µM (T-47D) [%]	inhibition at 10 µM (HT29) [%]	other results
O=C1Nc2ccccc2C1=Cc1ccc(OCc2ccncc2)cc1 (mixture of isomers) [Compound 5m, (E/Z)-3-[4-(Pyridin-4-ylmethoxy)benzylidene] indolin-2-one]	22	90	20.6	27.2	71.5	20.9	38.9	40.2	38.3	73.3	43.1	46	35.2	21.5	2.17	91.1	16.6	17.9	65.1	11.2	inhibition at 10 µM (HL-60(TB)): 55.3%; inhibition at 10 µM (UO-31): 44.7%; inhibition at 10 µM (K-562): 62.7%; inhibition at 10 µM (KM12): 66.3%; inhibition at 10 µM (HOP-62): 23%; melting point: 238 to 240 °C; inhibition at 10 µM (RXF 393): 43.9%; inhibition at 10 µM (MCF7): 71.6%; inhibition at 10 µM (MOLT-4): 78.5%; inhibition at 10 µM (A549/ATCC): 34.5%; inhibition at 10 µM (MALME-3M): 17.4%
O=C1Nc2ccc(F)cc2C1=Cc1ccc(OCc2ccncc2)cc1 (mixture of isomers) [Compound 5n, (E/Z)-5-Fluoro-3-[4-(pyridin-4-ylmethoxy)benzylidene] indolin-2-one]	41.1	93.1	25.7	28.1	64.5	27.6	61.3	36.9	22.1	85.4	60.5	47.4	26.6	39.2	12.9	61.8	20.7	29.9	64.3	36.4	inhibition at 10 µM (HL-60(TB)): 57.8%; inhibition at 10 µM (UO-31): 54.8%; inhibition at 10 µM (K-562): 79.3%; inhibition at 10 µM (KM12): 69.8%; inhibition at 10 µM (HOP-62): 17%; melting point: 233 to 235 °C; inhibition at 10 µM (RXF 393): 47.6%; inhibition at 10 µM (MCF7): 91.8%; inhibition at 10 µM (MOLT-4): 76.7%; inhibition at 10 µM (A549/ATCC): 29.8%; inhibition at 10 µM (MALME-3M): 26.8%
